13 compounds from patent publication US20240059671A1, “TYROSINE KINASE 2 (TYK2) DEGRADATION COMPOUNDS AND METHODS OF USE” (CULLGEN (SHANGHAI), INC., priority 2020, published 2024) can be followed below.

Structures are written as SMILES.

The experiment deals with TYK2 (Homo sapiens, UniProt P29597). Kind of experiment: TYK2 protein degradation in MOLT-4 cells by immunoblotting. Type of experiment: cell-based. Also noted: endogenous in cells; host or cells: MOLT-4. Conditions: MOLT-4 cells, 24 hours. The procedure, abridged: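 Percent TYK2 degradation came from densitometry of chemiluminescent immunoblots of RIPA lysates. Before lysis, MOLT-4 cells had been treated for 24 h with each compound at 0.5 or 5 μM.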
In general terms: A western blot detects proteins with antibodies after separation by electrophoresis.

TYK2, sequence (P29597 whole entry): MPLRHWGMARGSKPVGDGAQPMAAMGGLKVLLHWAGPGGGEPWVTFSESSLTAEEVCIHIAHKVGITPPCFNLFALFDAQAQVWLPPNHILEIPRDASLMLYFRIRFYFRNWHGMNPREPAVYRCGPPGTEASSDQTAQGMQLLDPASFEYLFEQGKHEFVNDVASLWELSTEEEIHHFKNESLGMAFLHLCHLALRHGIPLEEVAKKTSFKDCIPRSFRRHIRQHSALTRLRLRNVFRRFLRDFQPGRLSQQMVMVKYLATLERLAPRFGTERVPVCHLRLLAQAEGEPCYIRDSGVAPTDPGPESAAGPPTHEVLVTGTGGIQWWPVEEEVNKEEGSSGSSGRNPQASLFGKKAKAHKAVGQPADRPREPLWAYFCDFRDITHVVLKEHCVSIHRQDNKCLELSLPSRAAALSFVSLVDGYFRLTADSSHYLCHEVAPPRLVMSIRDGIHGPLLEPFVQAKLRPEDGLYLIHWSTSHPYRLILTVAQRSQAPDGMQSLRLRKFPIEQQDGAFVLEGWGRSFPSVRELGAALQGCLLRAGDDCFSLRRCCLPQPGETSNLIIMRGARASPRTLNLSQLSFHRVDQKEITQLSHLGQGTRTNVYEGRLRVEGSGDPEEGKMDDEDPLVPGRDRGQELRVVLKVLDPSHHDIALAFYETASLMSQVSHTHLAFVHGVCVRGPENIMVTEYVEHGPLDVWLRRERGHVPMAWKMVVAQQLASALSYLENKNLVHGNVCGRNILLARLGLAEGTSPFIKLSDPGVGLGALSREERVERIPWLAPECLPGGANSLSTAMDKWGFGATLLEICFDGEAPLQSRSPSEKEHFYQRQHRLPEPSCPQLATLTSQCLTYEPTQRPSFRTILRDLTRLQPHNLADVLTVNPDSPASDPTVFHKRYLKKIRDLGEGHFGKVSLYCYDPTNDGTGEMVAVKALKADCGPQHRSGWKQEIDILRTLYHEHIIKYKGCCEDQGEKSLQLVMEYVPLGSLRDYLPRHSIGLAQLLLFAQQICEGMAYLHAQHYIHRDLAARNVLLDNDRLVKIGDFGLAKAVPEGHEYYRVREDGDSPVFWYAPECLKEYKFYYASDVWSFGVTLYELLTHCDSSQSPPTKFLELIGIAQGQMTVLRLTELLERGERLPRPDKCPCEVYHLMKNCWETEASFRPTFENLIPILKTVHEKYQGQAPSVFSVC

For `CNC(=O)c1nnc(NC(=O)C2CC2)cc1Nc1cccc(-c2ncn(CCNC(=O)CCOCCOCCC(=O)N[C@H](C(=O)N3C[C@H](O)C[C@H]3C(=O)NCc3ccc(-c4scnc4C)cc3)C(C)(C)C)n2)c1OC` [CPD-069, 6-(Cyclopropanecarboxamido)-4-((3-(1-((S)-15-((2S,4R)-4-hydroxy-2-((4-(4-methylthiazol-5-yl)benzyl)carbamoyl)pyrrolidine-1-carbonyl)-16,16-dimethyl-4,13-dioxo-7,10-dioxa-3,14-diazaheptadecyl)-1H-1,2,4-triazol-3-yl)-2-methoxyphenyl)amino)-N-methylpyridazine-3-carboxamide], the “TYK2 Degradation (0.5 μM)” value is no more than 20% and the “TYK2 Degradation (5 μM)” value is given as no more than 20%.

Take `CNC(=O)c1nnc(NC(=O)C2CC2)cc1Nc1cccc(-c2ncn(CCNC(=O)COCCOCCOCC(=O)N[C@H](C(=O)N3C[C@H](O)C[C@H]3C(=O)NCc3ccc(-c4scnc4C)cc3)C(C)(C)C)n2)c1OC` [CPD-070, 6-(Cyclopropanecarboxamido)-4-((3-(1-((S)-16-((2S,4R)-4-hydroxy-2-((4-(4-methylthiazol-5-yl)benzyl)carbamoyl)pyrrolidine-1-carbonyl)-17,17-dimethyl-4,14-dioxo-6,9,12-trioxa-3,15-diazaoctadecyl)-1H-1,2,4-triazol-3-yl)-2-methoxyphenyl)amino)-N-methylpyridazine-3-carboxamide]: the “TYK2 Degradation (0.5 μM)” value is recorded as no more than 20% and the “TYK2 Degradation (5 μM)” value is no more than 20%.

On to `CNC(=O)c1nnc(NC(=O)C2CC2)cc1Nc1cccc(-c2ncn(CCNC(=O)CCOCCOCCOCCC(=O)N[C@H](C(=O)N3C[C@H](O)C[C@H]3C(=O)NCc3ccc(-c4scnc4C)cc3)C(C)(C)C)n2)c1OC` [CPD-071, 6-(Cyclopropanecarboxamido)-4-((3-(1-((5)-18-((2S,4R)-4-hydroxy-2-((4-(4-methylthiazol-5-yl)benzyl)carbamoyl)pyrrolidine-1-carbonyl)-19,19-dimethyl-4,16-dioxo-7,10,13-trioxa-3,17-diazaicosyl)-1H-1,2,4-triazol-3-yl)-2-methoxyphenyl)amino)-N-methylpyridazine-3-carboxamide], for which the “TYK2 Degradation (0.5 μM)” value is reported as no more than 20% and the “TYK2 Degradation (5 μM)” value is on record as no more than 20%.

Turning to `CNC(=O)c1nnc(NC(=O)C2CC2)cc1Nc1cccc(-c2ncn(CCNC(=O)CCOCCOCCOCCOCCC(=O)N[C@H](C(=O)N3C[C@H](O)C[C@H]3C(=O)NCc3ccc(-c4scnc4C)cc3)C(C)(C)C)n2)c1OC` [CPD-072, N^1-(2-(3-(3-((6-(Cyclopropanecarboxamido)-3-(methylcarbamoyl)pyridazin-4-yl)amino)-2-methoxyphenyl)-1H-1,2,4-triazol-1-yl)ethyl)-N^16-((S)-1-((2S,4R)-4-hydroxy-2-((4-(4-methylthiazol-5-yl)benzyl)carbamoyl)pyrrolidin-1-yl)-3,3-dimethyl-1-oxobutan-2-yl)-4,7,10,13-tetraoxahexadecanediamide], the “TYK2 Degradation (0.5 μM)” value is reported as no more than 20% and the “TYK2 Degradation (5 μM)” value is no more than 20%.

On to `CNC(=O)c1nnc(NC(=O)C2CC2)cc1Nc1cccc(-c2ncn(CCNC(=O)COCCOCCOCCOCCOCC(=O)N[C@H](C(=O)N3C[C@H](O)C[C@H]3C(=O)NCc3ccc(-c4scnc4C)cc3)C(C)(C)C)n2)c1OC` [CPD-073, N^1-(2-(3-(3-((6-(Cyclopropanecarboxamido)-3-(methylcarbamoyl)pyridazin-4-yl)amino)-2-methoxyphenyl)-1H-1,2,4-triazol-1-yl)ethyl)-N^17-((S)-1-((2S,4R)-4-hydroxy-2-((4-(4-methylthiazol-5-yl)benzyl)carbamoyl)pyrrolidin-1-yl)-3,3-dimethyl-1-oxobutan-2-yl)-3,6,9,12,15-pentaoxaheptadecanediamide], for which the “TYK2 Degradation (0.5 μM)” value is listed as no more than 20% and the “TYK2 Degradation (5 μM)” value is on record as no more than 20%.

On to `CNC(=O)c1nnc(NC(=O)C2CC2)cc1Nc1cccc(-c2ncn(CCNC(=O)CCOCCOCCOCCOCCOCCC(=O)N[C@H](C(=O)N3C[C@H](O)C[C@H]3C(=O)NCc3ccc(-c4scnc4C)cc3)C(C)(C)C)n2)c1OC` [CPD-074, N^1-(2-(3-(3-((6-(Cyclopropanecarboxamido)-3-(methylcarbamoyl)pyridazin-4-yl)amino)-2-methoxyphenyl)-1H-1,2,4-triazol-1-yl)ethyl)-N^19-((S)-1-((2S,4R)-4-hydroxy-2-((4-(4-methylthiazol-5-yl)benzyl)carbamoyl)pyrrolidin-1-yl)-3,3-dimethyl-1-oxobutan-2-yl)-4,7,10,13,16-pentaoxanonadecanediamide], for which the “TYK2 Degradation (0.5 μM)” value is listed as no more than 20% and the “TYK2 Degradation (5 μM)” value is listed as no more than 20%.

As for `CNC(=O)c1nnc(NC(=O)C2CC2)cc1Nc1cccc(-c2ncn(CCNC(=O)CCC(=O)N[C@H](C(=O)N3C[C@H](O)C[C@H]3C(=O)NCc3ccc(-c4scnc4C)cc3)C(C)(C)C)n2)c1OC` [CPD-075, N^1-(2-(3-(3-((6-(Cyclopropanecarboxamido)-3-(methylcarbamoyl)pyridazin-4-yl)amino)-2-methoxyphenyl)-1H-1,2,4-triazol-1-yl)ethyl)-N^4-((S)-1-((2S,4R)-4-hydroxy-2-((4-(4-methylthiazol-5-yl)benzyl)carbamoyl)pyrrolidin-1-yl)-3,3-dimethyl-1-oxobutan-2-yl)succinamide], the “TYK2 Degradation (0.5 μM)” value was no more than 20% and the “TYK2 Degradation (5 μM)” value is listed as no more than 20%.

Consider `CNC(=O)c1nnc(NC(=O)C2CC2)cc1Nc1cccc(-c2ncn(CCNC(=O)CCCC(=O)N[C@H](C(=O)N3C[C@H](O)C[C@H]3C(=O)NCc3ccc(-c4scnc4C)cc3)C(C)(C)C)n2)c1OC` [CPD-076, N^1-(2-(3-(3-((6-(Cyclopropanecarboxamido)-3-(methylcarbamoyl)pyridazin-4-yl)amino)-2-methoxyphenyl)-1H-1,2,4-triazol-1-yl)ethyl)-N^5-((S)-1-((2S,4R)-4-hydroxy-2-((4-(4-methylthiazol-5-yl)benzyl)carbamoyl)pyrrolidin-1-yl)-3,3-dimethyl-1-oxobutan-2-yl)glutaramide], for which the “TYK2 Degradation (0.5 μM)” value is on record as no more than 20% and the “TYK2 Degradation (5 μM)” value is no more than 20%.

For the compound `CNC(=O)c1nnc(NC(=O)C2CC2)cc1Nc1cccc(-c2ncn(CCNC(=O)CCCCC(=O)N[C@H](C(=O)N3C[C@H](O)C[C@H]3C(=O)NCc3ccc(-c4scnc4C)cc3)C(C)(C)C)n2)c1OC` [CPD-077, N^1-(2-(3-(3-((6-(Cyclopropanecarboxamido)-3-(methylcarbamoyl)pyridazin-4-yl)amino)-2-methoxyphenyl)-1H-1,2,4-triazol-1-yl)ethyl)-N^6-((S)-1-((2S,4R)-4-hydroxy-2-((4-(4-methylthiazol-5-yl)benzyl)carbamoyl)pyrrolidin-1-yl)-3,3-dimethyl-1-oxobutan-2-yl)adipamide], the “TYK2 Degradation (0.5 μM)” value was no more than 20% and the “TYK2 Degradation (5 μM)” value was no more than 20%.

On to `CNC(=O)c1nnc(NC(=O)C2CC2)cc1Nc1cccc(-c2ncn(CCNC(=O)CCCCCC(=O)N[C@H](C(=O)N3C[C@H](O)C[C@H]3C(=O)NCc3ccc(-c4scnc4C)cc3)C(C)(C)C)n2)c1OC` [CPD-078, N^1-(2-(3-(3-((6-(Cyclopropanecarboxamido)-3-(methylcarbamoyl)pyridazin-4-yl)amino)-2-methoxyphenyl)-1H-1,2,4-triazol-1-yl)ethyl)-N^7-((S)-1-((2S,4R)-4-hydroxy-2-((4-(4-methylthiazol-5-yl)benzyl)carbamoyl)pyrrolidin-1-yl)-3,3-dimethyl-1-oxobutan-2-yl)heptanediamide], for which the “TYK2 Degradation (0.5 μM)” value was no more than 20% and the “TYK2 Degradation (5 μM)” value is no more than 20%.

As to `CNC(=O)c1nnc(NC(=O)C2CC2)cc1Nc1cccc(-c2ncn(CCNC(=O)CCCCCCC(=O)N[C@H](C(=O)N3C[C@H](O)C[C@H]3C(=O)NCc3ccc(-c4scnc4C)cc3)C(C)(C)C)n2)c1OC` [CPD-079, N^1-(2-(3-(3-((6-(Cyclopropanecarboxamido)-3-(methylcarbamoyl)pyridazin-4-yl)amino)-2-methoxyphenyl)-1H-1,2,4-triazol-1-yl)ethyl)-N^8-((S)-1-((2S,4R)-4-hydroxy-2-((4-(4-methylthiazol-5-yl)benzyl)carbamoyl)pyrrolidin-1-yl)-3,3-dimethyl-1-oxobutan-2-yl)octanediamide], the “TYK2 Degradation (MOLT-4, 0.5 μM)” value is on record as “C (C: ≤20% TYK2 degradation)” and the “TYK2 Degradation (MOLT-4, 5 μM)” value is reported as “C (C: ≤20% TYK2 degradation)”.

Take `CNC(=O)c1nnc(NC(=O)C2CC2)cc1Nc1cccc(-c2ncn(CCNC(=O)CCCCCCCC(=O)N[C@H](C(=O)N3C[C@H](O)C[C@H]3C(=O)NCc3ccc(-c4scnc4C)cc3)C(C)(C)C)n2)c1OC` [CPD-080, N^1-(2-(3-(3-((6-(Cyclopropanecarboxamido)-3-(methylcarbamoyl)pyridazin-4-yl)amino)-2-methoxyphenyl)-1H-1,2,4-triazol-1-yl)ethyl)-N^9-((S)-1-((2S,4R)-4-hydroxy-2-((4-(4-methylthiazol-5-yl)benzyl)carbamoyl)pyrrolidin-1-yl)-3,3-dimethyl-1-oxobutan-2-yl)nonanediamide]: the “TYK2 Degradation (MOLT-4, 0.5 μM)” value is “C (C: ≤20% TYK2 degradation)” and the “TYK2 Degradation (MOLT-4, 5 μM)” value is on record as “C (C: ≤20% TYK2 degradation)”.

On to `CNC(=O)c1nnc(NC(=O)C2CC2)cc1Nc1cccc(-c2ncn(CCNC(=O)CCCCCCCCC(=O)N[C@H](C(=O)N3C[C@H](O)C[C@H]3C(=O)NCc3ccc(-c4scnc4C)cc3)C(C)(C)C)n2)c1OC` [CPD-081, N^1-(2-(3-(3-((6-(Cyclopropanecarboxamido)-3-(methylcarbamoyl)pyridazin-4-yl)amino)-2-methoxyphenyl)-1H-1,2,4-triazol-1-yl)ethyl)-N^10-((S)-1-((2S,4R)-4-hydroxy-2-((4-(4-methylthiazol-5-yl)benzyl)carbamoyl)pyrrolidin-1-yl)-3,3-dimethyl-1-oxobutan-2-yl)decanediamide], for which the “TYK2 Degradation (MOLT-4, 0.5 μM)” value was “C (C: ≤20% TYK2 degradation)” and the “TYK2 Degradation (MOLT-4, 5 μM)” value was “C (C: ≤20% TYK2 degradation)”.
